Test results from the METLIN SMRT retention time set (Domingo-Almenara et al. 2019).

Test: gradient 5% acetonitrile 3 min, to 50% in 2 min, to 85% in 15 min, held 3 min, 100 µL/min
Settings: column: Zorbax Extend-C18 2.1 x 50 mm; eluents: water / acetonitrile, 0.1% formic acid
Summary of the method: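 Retention times come from adduct peaks that were picked computationally and then checked by hand. The standards, pure and pooled in mixtures of ~100 molecules, were run on a Zorbax Extend-C18 column (2.1 × 50 mm, 1.8 μm) at 100 μL/min with water and acetonitrile, each with 0.1% formic acid. Detection was by quadrupole time-of-flight mass spectrometry in positive and negative ionization mode, with a dead volume of 40 μL and a dwell volume of 900 μL.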

Compound	RP-LC retention time
CC(C)n1cnc(S(=O)(=O)N2CCCC(C(=O)Nc3ccc(F)c(Cl)c3)C2)c1 (stereo unspecified)	848 s
CN(CCNC(=O)c1ccc2c(c1)N(S(C)(=O)=O)CC2)C1CCCCC1	610 s
Cc1ccc(CN2CCC(CNS(=O)(=O)c3ccc4c(c3)CCCC(=O)N4)CC2)cc1	762 s
O=C(NCCN1CCOCC1)C1CCN(c2nccnc2Sc2ccccc2)CC1	627 s
Cc1[nH]c(C(=O)N2CCC(CC(=O)NCCC3=CCCCC3)CC2)c(C)c1C	910 s
O=C(Nc1cnn(-c2ncc(N3CCSCC3)cn2)c1)C1CCCO1 (stereo unspecified)	665 s
COCCNC(=O)C1CCCN(C(=O)c2[nH]c(C)cc2C)C1 (stereo unspecified)	644 s
Cc1nc2nc(-c3ccccc3)nn2c(Sc2ccc(N)cc2)c1C	863 s
CS(=O)(=O)N1CCC(C(=O)NCc2ccc(Cl)cc2)Oc2ccccc21 (stereo unspecified)	1010 s
O=C(C1CCCN(S(=O)(=O)N2CCCCC2)C1)N1CCN(Cc2ccc3c(c2)OCO3)CC1 (stereo unspecified)	679 s
CC1CCN(S(=O)(=O)c2ccc3nn(C)c(=O)n3c2)CC1	744 s
Cn1c(C(=O)NCCN2CCCCCC2)cc2c(-c3cccs3)nn(-c3ccccc3)c21	782 s
O=C(Nc1c(-c2ccccc2)nc2ccccn12)c1ccc(Cl)cc1Cl	677 s
CCc1nc(-c2csc(S(=O)(=O)N3CCC(C(=O)N4CCCCC4)CC3)c2)no1	903 s
c1ccc(-c2nnc(-c3ccccc3)nn2)cc1	1220 s
COC(=O)c1c(C)[nH]c(C(=O)N2CCCC(C(=O)NCCCN3CCCC3)C2)c1C (stereo unspecified)	584 s
CCOCCOC(=O)C1=C(C)NC2=C(C(=O)C(C(=O)OC)C(C)C2)C1c1cccc(F)c1 (stereo unspecified)	894 s
Cn1cc(S(=O)(=O)N2CCC(C(=O)N3CCCCCC3)CC2)cc1C(=O)N1CCCCC1	770 s
O=C(NC1CC1)c1ccc(-c2cccs2)nc1	716 s
O=C(Nc1ccc(F)cc1F)N1CCC(CCNC(=O)C2(c3ccccc3)CC2)CC1	886 s
O=C(NCCCN1CCOCC1)C1CCc2sc(C(=O)N3CCOCC3)cc2C1 (stereo unspecified)	568 s
CC(C)N(CC#CCNS(=O)(=O)c1ccc(Cl)cc1)C(C)C	568 s
c1ccc(CCc2nc3nccc(-c4cccnc4)n3n2)cc1	726 s
COc1ccc2c(c1)C1(CCN(C(=O)C(C)C)C1)C(=O)N2C (stereo unspecified)	701 s
Ic1cccc(/C=N/Nc2nc(N3CCOCC3)nc(N(c3ccccc3)c3ccccc3)n2)c1	1140 s
CC(=O)N1CCc2cc(N3CC(C(=O)NCC(C)C)CC3=O)ccc21 (stereo unspecified)	643 s
O=C(Nc1nc(-c2ccco2)cs1)C1COCC(=O)N1Cc1ccccc1 (stereo unspecified)	729 s
CC1=CC(C)(C)N=C2SC(c3ccc(N)cc3)=NN12	635 s

Compound	RP-LC retention time
CN1CCn2cc(S(=O)(=O)Nc3ccc(F)cc3)cc2C1=O	678 s
CC(=O)N1CCC(CC(=O)N2CCCCCCN(C)C(=O)[C@@H]3CCC[C@@H]32)CC1	663 s
O=c1ccc(-c2ccccc2)nn1CCc1nc(-c2ccncc2)no1	727 s
Cc1nnc(-c2cc3ccccc3n2CC(=O)Nc2ccc(C(F)(F)F)cc2)o1	966 s
CC[C@H]1[C@@H]2C[C@H]3[C@@H]4N(C)c5ccccc5[C@]45C[C@@H]([C@H]2[C@H]5O)N3[C@@H]1O	652 s
O=C(CCc1cc(Cl)no1)N1CCCCC1c1noc(COCC2CC2)n1 (stereo unspecified)	934 s
CC(C)NC(=O)N1CC(c2nc(-c3ccccc3)no2)C2(CCOCC2)C1 (stereo unspecified)	715 s
Nc1ccc(C(=O)Nc2cccc(N)c2)cc1	752 s
CC(C)NC(=O)c1cc2c(=O)oc3ccccc3c2n1C	760 s
O=C(NCCCN1CCC(N2CCCCC2)CC1)c1cc(=O)n2c(nc3ccccc32)s1	577 s
CCS(=O)(=O)N1CC(=O)N(c2ccc(Cl)cc2)C(C)(C(=O)NC2CCCCC2)C1 (stereo unspecified)	882 s
Cn1cc(C(=O)Nc2cccc(Cl)c2)c2nn(-c3ccccc3)c(=O)c-2c1	1040 s
O=C(c1ccsc1)N1CCN(c2cc(-c3ccccc3)[nH]n2)CC1	730 s
CCCn1nnnc1NCc1ccc(-c2ccc(Br)cc2)o1	957 s
CC(C)CCNS(=O)(=O)c1cc(-c2nc(C(C)(C)C)cs2)cs1	1310 s
CCSc1nnc(NC(=O)Cn2cnc(C(C)C)cc2=O)s1	664 s
COCCN(Cc1ccncc1)C(=O)c1ccc2nsnc2c1	544 s
CCNC(=O)NCCC1CCN(S(=O)(=O)c2ccc(F)cc2)CC1	728 s
CCOC(=O)c1c(C)[nH]c(C)c1S(=O)(=O)NCCCN1CCc2ccccc2C1	651 s
c1ccc(OCCC2CCN(Cc3ccc4[nH]ccc4c3)C2)cc1 (stereo unspecified)	726 s
Cc1ccc(-c2noc(Cn3ccn(-c4cc(C)cc(C)c4)c(=O)c3=O)n2)cc1	612 s
Cc1cc(COC(=O)c2cc3ccccc3o2)no1	866 s
C=Cc1ccc(Cn2cc(S(=O)(=O)N3CCCCC3)ccc2=O)cc1	968 s
O=C(NCc1ccc(F)cc1)c1ccc(-c2cccs2)nc1	869 s
COc1ccc(-n2ccc(=O)c(-c3nc(-c4ccc(Br)cc4)no3)n2)cc1	984 s
Cc1ccccc1NC(=O)N1CCC(N(CCC(C)C)C2CCOCC2)CC1	636 s
CCc1ccccc1NS(=O)(=O)c1cn(CC(C)C)c2ncccc12	1050 s

Next, values leading:

RP-LC retention time	Compound
643 s	Cc1cc(C(=O)NC2CCc3nnc(C)n3CC2)c(C)n1Cc1ccco1 (stereo unspecified)
889 s	Cc1ccc(CNC(=O)c2cccc3c2CCN3C(=O)c2ccc(F)cc2)o1
956 s	COc1ccccc1-c1nc2nccc(-c3ccc(Cl)cc3)n2n1
860 s	COc1ccc(S(=O)(=O)c2ccc(NCc3cccc(OC)c3)nn2)cc1
744 s	CCc1ccccc1NC(=O)N1CCC(n2cnc3ccccc3c2=O)CC1
736 s	COc1ccc(-c2nc3c(C)cccn3c2Nc2ccc(C)cc2)cc1
641 s	COc1cc(NC(=O)Cn2nc(C(=O)N3CCCC3)c3ccccc32)cc(OC)c1
812 s	CCOc1ccc(C2c3c(oc4ccc(C)cc4c3=O)C(=O)N2CCCN2CCOCC2)cc1 (stereo unspecified)
612 s	O=C1Nc2cc(C(=O)N3CCN(Cc4ccccc4)CC3)ccc2N2CCCCC12 (stereo unspecified)
932 s	COc1ccc(C2CCCCCN2S(C)(=O)=O)cc1 (stereo unspecified)
585 s	O=C(NCc1ccccn1)C1CCCN(c2ccc3cc(S(=O)(=O)N4CCCC4)ccc3n2)C1 (stereo unspecified)
906 s	CCc1nc(-c2cc(S(=O)(=O)NCC(=O)NC3CCCCC3)c(C)s2)no1
1020 s	O=C(Cc1ccccc1Cl)N1CCCC1c1nc(-c2ccccc2)no1 (stereo unspecified)
883 s	Cc1ccc(CNC(=O)C2CCCN(S(=O)(=O)c3c[nH]c(C(=O)N4CCCCCC4)c3)C2)cc1 (stereo unspecified)
812 s	Cc1ccc(N(C)C(=O)c2nc(N3CCSCC3)c3cnn(C)c3n2)cc1
707 s	CCOC(=O)CSc1nnc2n1CCN2c1ccc(OC)cc1
1090 s	CCc1nc(-c2csc(S(=O)(=O)N3CCC(C(=O)Nc4cc(C)cc(C)c4)CC3)c2)no1
720 s	Cc1nnc(N2CCCC(C(=O)NCc3ccc(F)cc3)C2)c2nn(-c3ccccc3)c(C)c12 (stereo unspecified)

RP-LC retention time	Compound
1070 s	Cc1cc(C)cc(S(=O)(=O)N2CCC(n3cnc4c(C)cccc4c3=O)CC2)c1
1120 s	CCOC(=O)c1noc2nc(C)nc(N3CCc4ccccc4C3)c12
619 s	COc1ccccc1CNC(=O)C1CCN(c2cc(N3CCOCC3)ncn2)CC1
641 s	COc1ccc(CNS(=O)(=O)c2cc3n(c2)CCCNC3=O)cc1
706 s	COc1ccc(NC(=O)C2CC(=O)N(c3ccc4oc(C)nc4c3)C2)cc1 (stereo unspecified)
689 s	CCC1CCCCN1C(=O)c1cnc2nc(C)ccc2c1Nc1cc(OC)ccc1OC (stereo unspecified)
715 s	CCNC(=O)C1CCCN(c2nc3ncn(CC(=O)Nc4c(C)cc(C)cc4C)c(=O)c3s2)C1 (stereo unspecified)
858 s	Cc1sc2ncnc(N3CCCC(C)C3)c2c1C(=O)Nc1cc(F)c(F)cc1F (stereo unspecified)
720 s	COc1ccccc1-c1noc(C2CCCN2C(=O)c2cnccn2)n1 (stereo unspecified)
574 s	CC1CCN(c2ccc(CNc3nc4ccncc4n(C(C)C)c3=O)cc2)CC1
648 s	CC(C)(C)NC(=O)N1CCN(Cc2nc3cccnc3n2-c2cccc(F)c2)CC1
958 s	COC(=O)c1ccccc1NC(=O)N1CCCn2nc(-c3cccn3C)cc21
762 s	O=C(NC1CCCCC1N1C(=O)CSC1=O)c1cc(-c2ccc(F)cc2)n[nH]1 (stereo unspecified)
901 s	Cc1ccn2cc(C(=O)N3CCN(c4ccccc4C)CC3)nc2c1
880 s	CCOC(=O)c1[nH]c(C)c(CCC(=O)Nc2cc(OC)cc(OC)c2)c1C
745 s	O=C(Nc1cccc(Cl)c1F)N1CCCC1c1nncn1-c1ccccc1 (stereo unspecified)
660 s	Cc1ccccc1NC(=O)N1CCC(c2cc3n(n2)CCCN(C)C3=O)CC1
813 s	O=C(c1nccc2ccccc12)N1CCCCC1c1nc(C2CC2)no1 (stereo unspecified)
